The source of these data is paper PMC8121435, “Cork-in-bottle mechanism of inhibitor binding to mammalian complex I” (Science Advances, 2021).

Common to all, as to assay type: biochemical
One experiment deals with T1, complex I in bovine SMPs (Bos taurus, UniProt P03887+P17694+P42026).
T1 construct: Complex I from bovine heart were prepared; from tissue; host or cells: bovine heart mitochondria
The experiment in a line: Forward electron transport (NADH oxidation) in bovine heart submitochondrial particles. Particulars: NADH oxidation rate, ± SE. As for the experimental part: (§1) All catalytic activity assays were conducted at 32°C in 96-well plates using a Molecular Devices Spectramax 384 plus plate reader. Catalysis was initiated by addition of 200 μM NADH and monitored at 340 and 380 nm (ε340–380 = 4.81 mM^−1 cm^−1). Linear rates were measured for all assays, inhibitors were added from dimethyl sulfoxide stock solutions as required, and inhibitor-insensitive rates (using either 1 μM piericidin A or 1.4 μM IACS-2858) were subtracted from each measured rate. Membrane samples were prepared as described previously ([17], [20], [59], [60]), diluted to 20 μg ml^−1 in 10 mM tris-SO4 (pH 7.5) and 250 mM sucrose, and supplemented with 3 μM horse heart cytochrome c (except for P. denitrificans, for which the activity is unaffected by the addition). Mouse, bovine, and yeast (Y. lipolytica) complex I were purified as described previously ([17], [20], [59]); diluted to 0.5 nM in 20 mM tris-HCl (pH 7.5), 0.15% asolectin, and 0.15% CHAPS; and assayed using either 200 μM dQ or 200 μM ubiquinone-1 (Sigma-Aldrich). Complex I was purified from P. denitrificans strain Pd1222 ([61]) and provided by O. D. Jarman (MRC Mitochondrial Biology Unit, University of Cambridge); it was assayed likewise but in 10 mM MES-HCl (pH 6.5), 25 mM NaCl, and 2 mM CaCl2. […]

In experiment [1] the target is T2, P. denitrificans complex I (Paracoccus denitrificans, UniProt P29916+P29918+P29920).
T2 construct: Complex I was purified from P. denitrificans strain Pd1222; endogenous in cells; host or cells: P. denitrificans strain Pd1222
The experiment in a line: NADH:decylubiquinone oxidoreduction by purified P. denitrificans complex I. The conditions noted are these: dQ, pH 6.5. As for the experimental part:
as §1

A further experiment has as its system complex I. The experiment in a line: NADH:ubiquinone-1 oxidoreduction in the presence of inhibitor. The conditions noted are these: 200 μM ubiquinone-1. As for the experimental part: as §1
Experiment [2] deals with T3, complex I in mitochondrial membranes (Yarrowia lipolytica, UniProt Q9B6E8+Q9UUT7+Q9UUU1).
T3 sequence (Q9B6E8 1-341): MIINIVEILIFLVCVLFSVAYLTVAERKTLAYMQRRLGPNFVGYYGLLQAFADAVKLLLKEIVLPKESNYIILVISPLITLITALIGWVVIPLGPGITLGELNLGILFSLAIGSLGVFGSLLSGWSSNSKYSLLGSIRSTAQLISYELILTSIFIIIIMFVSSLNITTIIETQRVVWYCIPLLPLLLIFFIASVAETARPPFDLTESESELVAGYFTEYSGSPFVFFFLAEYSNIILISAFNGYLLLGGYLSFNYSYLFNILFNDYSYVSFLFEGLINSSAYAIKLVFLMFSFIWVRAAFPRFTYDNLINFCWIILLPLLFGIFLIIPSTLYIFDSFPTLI
T3 sequence (Q9UUU1 22-466): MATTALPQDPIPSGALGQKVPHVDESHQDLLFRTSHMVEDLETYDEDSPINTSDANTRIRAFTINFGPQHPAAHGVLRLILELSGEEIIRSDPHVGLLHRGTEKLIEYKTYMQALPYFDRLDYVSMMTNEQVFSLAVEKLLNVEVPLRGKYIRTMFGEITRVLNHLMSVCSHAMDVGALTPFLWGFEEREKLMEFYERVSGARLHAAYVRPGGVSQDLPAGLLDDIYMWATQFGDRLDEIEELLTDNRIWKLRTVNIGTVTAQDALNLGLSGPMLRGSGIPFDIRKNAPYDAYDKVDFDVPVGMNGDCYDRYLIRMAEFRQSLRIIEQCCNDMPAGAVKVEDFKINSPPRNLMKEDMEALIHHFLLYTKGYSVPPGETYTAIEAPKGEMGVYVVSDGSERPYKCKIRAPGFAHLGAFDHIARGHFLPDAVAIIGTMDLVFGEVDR
T3 sequence (Q9UUT7 28-210): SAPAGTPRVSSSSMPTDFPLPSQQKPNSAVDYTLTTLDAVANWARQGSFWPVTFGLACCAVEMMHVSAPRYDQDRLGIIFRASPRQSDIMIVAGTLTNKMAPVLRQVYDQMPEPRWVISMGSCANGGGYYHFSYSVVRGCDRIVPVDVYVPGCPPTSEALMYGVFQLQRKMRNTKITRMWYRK
The experiment in a line: NADH oxidation in Y. lipolytica mitochondrial membranes. As for the experimental part: as §1

The target of experiment [3] is T4, complex I in mitochondrial membranes (Mus musculus, UniProt P03888+Q91WD5+Q9DC70).
T4 construct: from tissue; host or cells: mouse (C57BL/6) heart mitochondria
The experiment in a line: NADH oxidation in mouse mitochondrial membranes. Particulars: M. musculus membranes 20 μg ml−1; ± SE. As for the experimental part: as §1

Another experiment deals with T5, mouse complex I (Mus musculus, UniProt P03888+Q91WD5+Q9DC70).
T5 construct: from tissue; host or cells: mouse (C57BL/6) heart mitochondria
The experiment in a line: NADH:decylubiquinone oxidoreduction by purified mouse complex I. The conditions noted are these: purified mouse complex I ~0.5 nM, 200 μM dQ, 200 μM NADH, 32°C; Hill slope constrained to −1; ± SE. The method, then: All catalytic activity assays were conducted at 32°C in 96-well plates using a Molecular Devices Spectramax 384 plus plate reader. Catalysis was initiated by addition of 200 μM NADH and monitored at 340 and 380 nm (ε340–380 = 4.81 mM^−1 cm^−1). Linear rates were measured for all assays, inhibitors were added from dimethyl sulfoxide stock solutions as required, and inhibitor-insensitive rates (using either 1 μM piericidin A or 1.4 μM IACS-2858) were subtracted from each measured rate. Membrane samples were prepared as described previously ([17], [20], [59], [60]), diluted to 20 μg ml^−1 in 10 mM tris-SO4 (pH 7.5) and 250 mM sucrose, and supplemented with 3 μM horse heart cytochrome c (except for P. denitrificans, for which the activity is unaffected by the addition). Mouse, bovine, and yeast (Y. lipolytica) complex I were purified as described previously ([17], [20], [59]); diluted to 0.5 nM in 20 mM tris-HCl (pH 7.5), 0.15% asolectin, and 0.15% CHAPS; and assayed using either 200 μM dQ or 200 μM ubiquinone-1 (Sigma-Aldrich). Complex I was purified from P. denitrificans strain Pd1222 ([61]) and provided by O. D. Jarman (MRC Mitochondrial Biology Unit, University of Cambridge); it was assayed likewise but in 10 mM MES-HCl (pH 6.5), 25 mM NaCl, and 2 mM CaCl2. Bovine SMPs were prepared as described previously ([61]) and diluted to 20 μg ml^−1 in 10 mM tris-SO4 (pH 7.5) and 250 mM sucrose for FET and RET assays. The RET assay was initiated using 1 mM NAD^+, 1 mM ATP, 10 mM succinate, 1 mM cyanide, and 2 mM MgSO4, in the absence of NADH. AOX from Trypanosoma brucei brucei was prepared as described previously ([23]). Complex I proteoliposomes were assayed using 10 mM Mops-KOH (pH 7.5), 50 mM KCl, and AOX (10 μg ml^−1).

For `CS(=O)(=O)C1CCN(c2cccc(Cn3cc(-c4nc(-c5ccc(OC(F)(F)F)cc5)no4)ccc3=O)c2)CC1` [IACS-2858, 1-(3-(4-(Methylsulfonyl)piperidin-1-yl)benzyl)-5-(3-(4-(trifluoromethoxy)phenyl)-1,2,4-oxadiazol-5-yl)pyridin-2(1H)-one], the IC50 at complex I in bovine SMPs is 6.4 ± 0.2 nM; in experiment [1], approximately 110000 nM; in experiment [2] it was approximately 7200 nM; in experiment [3], 1.4 ± 0.1 nM; against mouse complex I, 2.8 nM. The “reduction of ubiquinone-1 in the presence of the inhibitor” value in the experiment on complex I is “No activity was observed”.
